pIC50: −log10 of the molar value. Structures can show the parent of a compound that is named as a salt. Where two headings read alike, the source gives them in different places.
Experiments:
[1] = tested on: hypertensive ouabain-sensitive rats (os rats); test: Systolic blood pressure fall in hypertensive ouabain-sensitive rats (OS rats); type: in vivo, rat; conditions: 10 μg/kg/day by mouth for four weeks; for HR / SBP: measured 6 hours after the treatment; for SBP: tail-cuff
Experimental: The ability of these compounds to lower blood pressure was tested by using an animal model with induced hypertension, in particular, rats made hypertensive by chronic infusion of ouabain, according to Ferrari P., et al. J. Pharm. Exp. Ther. 1998, 285, 83-94.
The procedure adopted to test the antihypertensive activity of the compounds on the above mentioned model was the following: systolic blood pressure (SBP) and heart rate (HR) were measured by an indirect tail-cuff method. The blood pressure lowering effect was measured in hypertensive ouabain-sensitive rats. The compound, suspended in Methocel 0.5% (w/v), was administered daily at the dose of 10 μg/kg/day by mouth for four weeks. SBP and HR were measured weekly 6 hours after the treatment. The comparison are ouabain sensitive rats (OS rats) and non hypertensive rats (control), both treated only with Methocel 0.5% (w/v). As shown in the following Table 4, treatment with a compound of the present invention lowers the blood pressure of OS rats (170 mm Hg) to almost the level of control rats (150 mm Hg).

Na+, K+-ATPase = Na+, K+-ATPase (Canis lupus familiaris, UniProt P50997); test: biochemical; design: species or system dog
fresh rat hepatocytes = test: Metabolism in fresh rat hepatocytes; conditions: fresh rat hepatocytes; test item nominal concentration 45 μM
anesthetized guinea-pig = test: Inotropic effect and lethal dose, slow intravenous infusion (over 90 minutes) in anesthetized guinea-pig; conditions: for % decrease from Emax after 20 min from the end of the infusion: duration of the inotropic effect; for Maximum dose infused: maximum dose infused in the survived animals
[2] = read-out: Na+, K+-ATPase Inhibition IC50
[3] = slow i.v. infusion over 90 minutes

CON=C1CC2CC(=NOCCN)CCC2(C)C2CCC3(C)C(=O)CCC3C12 (mixture of isomers) [I-bt, (E,Z)-3-(2-Aminoethoxyimino)-7-(E)-methoxyiminoandrostan-17-one fumarate]
HR % beats/min [1]: 0%
SBP - % (fall vs OS rats) [1]: 8.3%
SBP - mm Hg (fall vs OS rats) [1]: 14.2 mm Hg
HR [1]: 368 beats/min.
SBP [1]: 155.8 mm Hg
pIC50 (Na+, K+-ATPase; dog kidney enzyme, read-out: Na+, K+-ATPase Inhibition IC50): 4.92

COC1CC2CC(=NOCCN)CCC2(C)C2CCC3(C)C(=O)CCC3C12 (mixture of isomers) [I-ee, (E,Z) 3-(2-Aminoethoxyimino)-7α-methoxyandrostane-17-one hemifumarate]
HR % beats/min [1]: +5.1%
SBP - % (fall vs OS rats) [1]: 11.0%
SBP - mm Hg (fall vs OS rats) [1]: 19.0 mm Hg
HR [1]: 381 beats/min.
SBP [1]: 151.0 mm Hg
% of compound metabolized after 60 minutes (fresh rat hepatocytes): 22%
pIC50 (Na+, K+-ATPase; [2]): 4.85

C=C1C[C@@H]2[C@H](CC[C@]3(C)C(=O)CC[C@@H]23)[C@@]2(C)CC/C(=N\OCCN)CC12.Cl (stereo partly drawn) [I-ai, (E) 3-(2-Aminoethoxyimino)-6-methyleneandrostan-17-one hydrochloride]
% of compound metabolized after 60 minutes (fresh rat hepatocytes): 27%
pIC50 (Na+, K+-ATPase; Na+, K+-ATPase Inhibition IC50): 7.08
ED80 (anesthetized guinea-pig; Cavia porcellus, iv, 1.5 h, read-out: ED80 (inotropic potency, dose increasing +dP/dTmax by 80%)): 1.2 µmol/kg
ED (max) (anesthetized guinea-pig; Cavia porcellus, iv, 1.5 h, read-out: EDmax (dose inducing maximum positive inotropic effect)): 2.99 µmol/kg
Emax (anesthetized guinea-pig; Cavia porcellus, iv, 1.5 h, read-out: Emax % increase in +dP/dTmax): 235%
% decrease from Emax after 20 min from the end of the infusion (anesthetized guinea-pig): 100%
Maximum dose infused (anesthetized guinea-pig): 3.2 µmol/kg
Dead/treated (anesthetized guinea-pig; [3]): 0/5

C[C@]12CCC(=NOCCN)CC1[C@@H](NC=O)C[C@@H]1[C@@H]2CC[C@]2(C)C(=O)CC[C@@H]12.O=C(O)/C=C/C(=O)O (stereo partly drawn) [I-be, (E,Z) 3-(2-Aminoethoxyimino)-6α-formamidoandrostan-17-one fumarate]
% of compound metabolized after 60 minutes (fresh rat hepatocytes): 16%
pIC50 (Na+, K+-ATPase; [2]): 6.80
Lethal dose/ED80 (safety ratio) (anesthetized guinea-pig; calculated in the died animals): 32.8
% decrease from Emax after 20 min from the end of the infusion (anesthetized guinea-pig): 37%
Maximum dose infused (anesthetized guinea-pig): 50.4 µmol/kg
Emax % increase in +dP/dTmax (anesthetized guinea-pig; maximum increase in contractile force, slow i.v. infusion over 90 minutes): 174%
Dead/treated (anesthetized guinea-pig; [3]): 1/5
ED80 (inotropic potency, dose increasing +dP/dTmax by 80%) (anesthetized guinea-pig; [3]): 1.99 µmol/kg
EDmax (dose inducing maximum positive inotropic effect) (anesthetized guinea-pig; [3]): 27.4 µmol/kg
